{"source": "paper PMC9696309", "about": "(Metabolites, 2022)", "key": {"[1]": {"test_system": "severe acute RS-CoV 3CL^pr°", "conditions": "inhibition of severe acute RS-CoV 3CL^pr° activity; cited from earlier work"}, "in vitro": {"assay": "in vitro", "conditions": "African green monkey"}, "SARS-CoV-2": {"test_system": "SARS-CoV-2", "assay": "microbe, parasite or virus in culture", "format": "cell-based"}}, "note": "Like-named read-outs stand apart in the source and are kept apart here."}
{"smiles": "O=c1cc(-c2ccc(O)cc2)oc2cc(O)cc(O)c12", "note": "[apigenin]", "values": [{"measurement": "IC50", "setting": "[1]", "result": 281, "unit": "µM"}]}
{"smiles": "CC[C@H](CC[C@@H](C)[C@H]1CC[C@H]2[C@@H]3CC=C4C[C@@H](O[C@@H]5O[C@H](CO)[C@@H](O)[C@H](O)[C@H]5O)CC[C@]4(C)[C@H]3CC[C@]12C)C(C)C", "note": "[Compound 9, daucosterol]", "values": [{"measurement": "CC50", "setting": "in vitro", "result": 2.55, "unit": "mM"}]}
{"smiles": "COc1c(O)cc2oc(-c3ccc(O)cc3)c(OC)c(=O)c2c1O", "note": "[Compound 7, 5,7,4’-trihydroxy-3,6-dimethoxy flavone]", "values": [{"measurement": "IC50", "setting": "SARS-CoV-2", "result": 664, "unit": "µM"}, {"measurement": "IC50", "setting": "SARS-CoV-2; Severe acute respiratory syndrome coronavirus 2", "result": 664, "unit": "µM"}, {"measurement": "CC50", "setting": "in vitro", "result": 1.07, "unit": "mM"}]}
{"smiles": "COc1ccc(-c2coc3cc(O)ccc3c2=O)cc1", "note": "[Compound 3, formononetin]", "values": [{"measurement": "CC50", "setting": "in vitro", "result": 1.72, "unit": "mM"}]}
{"smiles": "O=c1cc(-c2ccc(O)c(O)c2)oc2cc(O)cc(O)c12", "note": "[luteolin]", "values": [{"measurement": "IC50", "setting": "[1]", "result": 20.2, "unit": "µM"}]}
